Experiments:
[1] = test system: Streptococcus faecalis 05045; test: Agar disc diffusion, zone of inhibition vs. Streptococcus faecalis 05045; type: cell-based; conditions: Enterococcus faecalis, 12.7 mm disc, 37°, overnight, read-out: Zone diameter
Procedure: Paper disks (12.7 mm in diameter) impregnated with an aqueous solution containing varying amounts of 2'-chloropentostatin were placed on a layer of agar containing AM-10 assay medium (Table 4) and inoculated with Streptococcus faecalis 05045. After incubation at 37° overnight the following zones of inhibition were observed: […]

adenosine deaminase [2] = target: T1, adenosine deaminase (Homo sapiens, UniProt P00813); test: biochemical
T1 sequence (P00813 1-363): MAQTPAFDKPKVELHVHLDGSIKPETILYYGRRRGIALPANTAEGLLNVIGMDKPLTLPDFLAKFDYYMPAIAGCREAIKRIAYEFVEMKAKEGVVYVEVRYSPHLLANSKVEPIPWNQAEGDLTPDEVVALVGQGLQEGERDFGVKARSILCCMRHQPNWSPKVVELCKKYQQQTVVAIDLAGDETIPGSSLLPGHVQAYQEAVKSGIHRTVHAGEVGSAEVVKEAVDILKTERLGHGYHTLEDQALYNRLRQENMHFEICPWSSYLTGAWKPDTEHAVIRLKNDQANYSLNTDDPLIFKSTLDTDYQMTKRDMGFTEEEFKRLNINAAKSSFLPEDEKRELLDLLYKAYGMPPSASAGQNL
Procedure: The potency of 2'-chloropentostatin as an adenosine deaminase inhibitor was determined using the following methods. The velocity (in moles/minute/ml) of the reaction of adenosine deaminase with adenosine was measured for several concentrations of the enzyme in the presence of various concentrations of the inhibitor, 2'-chloropentostatin. The data has been plotted in FIG. 1 in the form of an Ackerman-Potter plot (see W. W. Ackerman and V. R. Potter, Proc. Soc. Exp. Biol. Med., 72:1 (1949)).
The values of Vo /Vi =2 for each curve yield the I50 for the enzyme inhibitor at each substrate concentration. These I50 values have been plotted versus substrate concentration in FIG. 3.

[3] = test system: DNA viruses, especially herpes and vaccinia viruses; conditions: U.S. Pat. No. 3,616,208; mammals; cited from earlier work
adenosine deaminase [4] = target: T1, adenosine deaminase; conditions: cited from earlier work
adenosine deaminase [5] = target: T1, adenosine deaminase; conditions: prior patents, in words; cited from earlier work

OC[C@H]1O[C@@H](n2cnc3c2N=CNC[C@H]3O)[C@H](Cl)[C@@H]1O [2'-chloropentostatin, (R)-3-(2-chloro-2deoxy-beta-D-ribofuranosyl)-3,6,7,8-tetrahydroimidazo[4,5-d][1,3]diazepin-8-ol]
zone of inhibition at 0.2 µg/mL ([1]; 0.2 μg/ml): 40 mm | zone of inhibition at 2 µg/mL ([1]; 2 μg/ml): 47 mm | zone of inhibition at 20 µg/mL ([1]; 20 μg/ml): 55 mm | zone of inhibition at 200 µg/mL ([1]; 200 μg/ml): 61 mm | zone of inhibition at 2000 µg/mL ([1]; 2000 μg/ml): 64 mm | Ki (adenosine deaminase [2]): 0.1 nM | type of inhibition of adenosine deaminase (adenosine deaminase [2]; Ackerman-Potter plot, FIG. 1): "tight-binding" or "pseudo-irreversible" inhibitor

Nc1ncnc2c1ncn2[C@@H]1O[C@H](CO)[C@@H](O)[C@@H]1O [9-(beta-D-arabinofuranosyl)adenine]
treatment of DNA viruses [3]: useful agent for the treatment of DNA viruses | biological efficacy, limitation by deamination/deactivation in vivo (adenosine deaminase [4]): greatly diminished by the rapid deamination

OC[C@H]1O[C@@H](n2cnc3c2N=CNC[C@H]3O)[C@H](O)[C@@H]1O [coformycin, (R) -3-(beta-D-ribofuranosyl)-3,6,7,8-tetrahydroimidazo[4,5-d][1,3]diazepin-8-ol]
inhibition of adenosine deaminase (adenosine deaminase [5]): potent inhibitors of adenosine deaminase

Reference: patent US4713372A, “2-chloropentostatin compound having adenosine diaminase inhibitory activity” (Warner-Lambert Company, priority 1985, dated 1987)
